Read-outs that look alike come from different tables or passages of the source.
Key:
[1] = clinical drug-drug interaction study: effect of alisporivir on telaprevir (CYP3A4 and P-gp substrate) pharmacokinetics; format: in vivo; conditions: healthy human subjects; alisporivir 600 mg BID for 7 day and 600 mg QD for one additional day; single 375 mg oral dose of telaprevir
Experimental: The T1/2 of telaprevir was longer when telaprevir was administered with alisporivir.

[2] = clinical drug-drug interaction study: effect of alisporivir on boceprevir (CYP3A4 and P-gp substrate) pharmacokinetics; format: in vivo; conditions: healthy human subjects; alisporivir 600 mg BID for 7 days and 600 mg QD for one additional day; single 400 mg oral dose of boceprevir
Experimental: The T1/2 of boceprevir was similar when boceprevir was administered with alisporivir.

[3] = human, in vivo, po
[4] = clinical drug-drug interaction study: effect of alisporivir on digoxin (P-gp substrate) pharmacokinetics; format: in vivo, human; conditions: alisporivir 600 mg BID for 7 days; single oral 0.25 mg dose of digoxin
Experimental: Digoxin 0.25 mg is generally initiated in patients under the age of 70 with good renal function. When digoxin is taken with food high in bran fiber, the amount absorbed from an oral dose may be reduced.

[5] = alisporivir 600 mg BID for 10 days; single 40 mg oral dose of atorvastatin
[6] = human, in vivo, po; remark: listed apart in the source
[7] = clinical drug-drug interaction study: effect of alisporivir on azithromycin (CYP3A4 substrate) pharmacokinetics; format: in vivo, human; conditions: single 1200 mg oral dose of alisporivir; single oral 1000 mg dose of azithromycin
[8] = effect of alisporivir on circulating bilirubin concentrations in healthy subjects; conditions: 40 mg valsartan before and after alisporivir 600 mg BID 7 days then QD
[9] = clinical drug-drug interaction study: effect of alisporivir on valsartan (CYP2C9, OATP1B1, OATP1B3, MRP2 substrate) pharmacokinetics; conditions: alisporivir 600 mg BID for 7 days; single oral 40 mg dose of valsartan
[10] = clinical drug-drug interaction study: effect of alisporivir on buspirone (sensitive CYP3A4 substrate) pharmacokinetics; conditions: alisporivir 600 mg BID for 7 days; single oral 5 mg dose of buspirone

For `CCC[C@H](NC(=O)[C@@H]1[C@H]2CCC[C@H]2CN1C(=O)[C@@H](NC(=O)[C@@H](NC(=O)c1cnccn1)C1CCCCC1)C(C)(C)C)C(=O)C(=O)NC1CC1` [telaprevir], the “T1/2 when administered with alisporivir” value [1] was “longer” and the “increase in the Cmax” value [1] was roughly 2.4 fold.

In the case of `CC(C)(C)NC(=O)N[C@H](C(=O)N1C[C@H]2[C@@H]([C@H]1C(=O)NC(CC1CCC1)C(=O)C(N)=O)C2(C)C)C(C)(C)C` (stereo partly shown) [boceprevir], the “T1/2 when administered with alisporivir” value [2] is reported as “similar” and the “increase in the Cmax” value [2] is reported as roughly 47%.

For `CN(C)CCC[C@@]1(c2ccc(F)cc2)OCc2cc(C#N)ccc21` [escitalopram], the “T1/2 when administered with alisporivir” value [3] was “similar”.

In the case of `C[C@H]1O[C@@H](O[C@H]2[C@@H](O)C[C@H](O[C@H]3[C@@H](O)C[C@H](O[C@H]4CC[C@@]5(C)[C@H](CC[C@@H]6[C@@H]5C[C@@H](O)[C@]5(C)[C@@H](C7=CC(=O)OC7)CC[C@]65O)C4)O[C@@H]3C)O[C@@H]2C)C[C@H](O)[C@@H]1O` [digoxin], the “effect of alisporivir on renal clearance” value [4] is reported as “did not affect”, the “increase in Cmax” value [4] is reported as roughly 1.8 fold and the “increase in the AUC” value [4] is reported as roughly 2.6 fold.

In the case of `CC(C)c1c(C(=O)Nc2ccccc2O)c(-c2ccccc2)c(-c2ccc(F)cc2)n1CCC(O)CC(O)CC(=O)O` (stereo not shown) [o-OH-atorvastatin], the “increase in exposure (AUC)” value [5] is reported as roughly 9 fold and the “increase in exposure (Cmax)” value [5] is reported as “approximately 7 fold”.

For `CC(C)n1c(/C=C/C(O)CC(O)CC(=O)O)c(-c2ccc(F)cc2)c2ccccc21` (stereo not shown) [fluvastatin], the “T1/2 when administered with alisporivir” value [6] was “longer”.

In the case of `CC[C@H]1OC(=O)[C@H](C)[C@@H](O[C@H]2C[C@@](C)(OC)[C@@H](O)[C@H](C)O2)[C@H](C)[C@@H](O[C@@H]2O[C@H](C)C[C@H](N(C)C)[C@H]2O)[C@](C)(O)C[C@@H](C)CN(C)[C@H](C)[C@@H](O)[C@]1(C)O` [azithromycin], the “increase in the AUC” value [7] is reported as 32-39%.

In the case of `CCCCC(=O)N(Cc1ccc(-c2ccccc2-c2nnn[nH]2)cc1)[C@H](C(=O)O)C(C)C` [valsartan], the Valsartan exposure increased [8] is reported as roughly 6 fold, the “increase in Cmax” value [9] is reported as “approximately 2.3 fold” and the “increase in the AUC” value [9] is reported as roughly 6 fold.

For `c1cnc(N2CCNCC2)nc1` [1-PP], the “AUC increase (metabolite of buspirone)” value [10] was 12-15%.
